From ChEMBL document CHEMBL3400058, “Synthesis, anticonvulsant activity and molecular modeling study of some new hydrazinecarbothioamide, benzenesulfonohydrazide, and phenacylacetohydrazide analogues of 4(3H)-quinazolinone” (Bioorg Med Chem Lett, 2015) come the findings set out here.

Data set [1] concerns Mus musculus. Nature of the data set: Anticonvulsant activity in mouse assessed as prolongation of convulsions onset time at 150 mg/kg, ip administered 20 mins prior to PTZ challenge relative to control. Type of data set: functional. The conditions noted are these: route intraperitoneal.
Data set [2] has as its system Mus musculus. The data set can be described thus: Anticonvulsant activity in mouse assessed as delay of death time at 150 mg/kg, ip administered 20 mins prior to PTZ challenge relative to control. Conditions: route intraperitoneal. Type of data set: functional.
Data set [3] deals with Mus musculus. The data set can be described thus: Anticonvulsant activity in mouse assessed as decrease in convulsion frequency at 150 mg/kg, ip administered 20 mins prior to PTZ challenge relative to control. Also on record: scale not given: the % may be the effect or the level left. Conditions: route intraperitoneal. Type of data set: functional.
In data set [4] the test system is Mus musculus. Nature of the data set: Anticonvulsant activity in mouse assessed as decrease in convulsion frequency at 150 mg/kg, ip administered 20 mins prior to picrotoxin challenge relative to control. Conditions: route intraperitoneal. The format is functional. Also on record: scale not given: the % may be the effect or the level left.
Data set [5] relates to Mus musculus. The data set can be described thus: Anticonvulsant activity in mouse assessed as delay of death time at 150 mg/kg, ip administered 20 mins prior to picrotoxin challenge relative to control. The format is functional. Conditions: route intraperitoneal.
Data set [6] relates to Mus musculus. The data set can be described thus: Anticonvulsant activity in mouse assessed as prolongation of convulsions onset time at 150 mg/kg, ip administered 20 mins prior to picrotoxin challenge relative to control. Type of data set: functional. The conditions noted are these: route intraperitoneal.
Data set [7] concerns Mus musculus. The data set can be described thus: Anticonvulsant activity in mouse assessed as delay of death time at 50 mg/kg, ip administered 20 mins prior to PTZ challenge relative to control. The format is functional. The conditions noted are these: route intraperitoneal.
Data set [8] is filed under the species Mus musculus. Nature of the data set: Protective index, ratio of TD50 for mouse to ED50 for anticonvulsant activity in mouse.
The test system of data set [9] is Mus musculus. Nature of the data set: Anticonvulsant activity in mouse assessed as prolongation of convulsions onset time at 50 mg/kg, ip administered 20 mins prior to PTZ challenge relative to control. Conditions: route intraperitoneal. Type of data set: functional.
The test system of data set [10] is Mus musculus. Nature of the data set: Anticonvulsant activity in mouse assessed as protection against PTZ-induced convulsions at 50 mg/kg, ip administered 20 mins prior to PTZ challenge relative to control. The format is functional. The conditions noted are these: route intraperitoneal.
Data set [11] is described as follows: Therapeutic index, ratio of LD50 for mouse to ED50 for anticonvulsant activity in mouse. Type of data set: organism-based. Conditions: in vivo, read-out: Ratio LD50/ED50.
For data set [12], the system named is Mus musculus. Nature of the data set: Anticonvulsant activity in mouse assessed as decrease in convulsion frequency at 50 mg/kg, ip administered 20 mins prior to PTZ challenge relative to control. The conditions noted are these: route intraperitoneal. The format is functional. On the set-up: scale not given: the % may be the effect or the level left.
Data set [13] relates to Mus musculus. The data set can be described thus: Anticonvulsant activity in mouse assessed as protection against PTZ-induced convulsions at 150 mg/kg, ip administered 20 mins prior to PTZ challenge relative to control. Conditions: route intraperitoneal. The format is functional.
Data set [14] deals with Mus musculus. The data set can be described thus: Toxicity in mouse at 150 mg/kg, […] 20 mins prior to PTZ challenge relative to control. The conditions noted are these: in vivo. The format is organism-based. On the set-up: dose 150 mg/kg.

Consider `CCCCC(=O)NNC(=O)CSc1nc2ccc(Cl)cc2c(=O)n1-c1ccccc1`, for which the figures for the Activity in the data set with Mus musculus [1], in the data set on Mus musculus [2] and in the data set on Mus musculus [3] were 114%, 47% and 87%, respectively.

For `CSc1nc2ccc(Cl)cc2c(=O)n1-c1ccccc1`, the results for the Activity in the data set on Mus musculus [1], with Mus musculus [2] and with Mus musculus [3] were 114%, 44% and 0%, respectively.

As to `COc1cc2nc(SC)n(-c3ccccc3)c(=O)c2cc1OC`, the values for the Activity in the data set with Mus musculus [1], in the data set on Mus musculus [2] and with Mus musculus [3] were 35%, 461% and 0%, respectively.

Take `CSc1nc2ccc(Cl)cc2c(=O)n1Cc1ccccc1`: the Activity in the data set on Mus musculus [1] is 114%; with Mus musculus [2], 5%; with Mus musculus [4], 91%; with Mus musculus [5] it was 0%; with Mus musculus [6], 36%; with Mus musculus [3], 61%.

Take `CCOC(=O)CSc1nc2ccc(Cl)cc2c(=O)n1-c1ccccc1`: the Activity in the data set with Mus musculus [1] and in the data set with Mus musculus [3] was 0% throughout.

On to `CCOC(=O)CSc1nc2ccc(Cl)cc2c(=O)n1Cc1ccccc1`, for which the Activity with Mus musculus [1] turned out to be 0%; with Mus musculus [4], 25%; in the data set on Mus musculus [5] it was 17%; in the data set with Mus musculus [6], 5%; in the data set with Mus musculus [3], 0%.

For `O=C(CSc1nc2ccc(Cl)cc2c(=O)n1-c1ccccc1)NNC(=S)NCc1ccccc1`, the Activity in the data set on Mus musculus [1] is 114%; in the data set on Mus musculus [2] it was 145%; in the data set on Mus musculus [3], 0%.

In the case of `O=C(CSc1nc2ccc(Cl)cc2c(=O)n1Cc1ccccc1)NNC(=S)Nc1ccccc1`, the Activity in the data set with Mus musculus [1] and in the data set with Mus musculus [3] was 0% each time.

For the molecule `O=C(CSc1nc2ccc(Cl)cc2c(=O)n1Cc1ccccc1)NNC(=S)NCc1ccccc1`, the Activity in the data set on Mus musculus [1] is on record as 471%; in the data set on Mus musculus [2], 101%; in the data set with Mus musculus [4] it was 39%; in the data set with Mus musculus [5], 25%; with Mus musculus [6], 15%; with Mus musculus [3] it was 61%.

Turning to `COc1cc2nc(SCC(=O)NNC(=S)Nc3ccccc3)n(Cc3ccccc3)c(=O)c2cc1OC`, the Activity stood at 150% in the data set with Mus musculus [1]; 5% in the data set with Mus musculus [2]; 89% with Mus musculus [4]; 25% in the data set on Mus musculus [5]; 4% in the data set with Mus musculus [6]; 81% in the data set on Mus musculus [3].

With `COc1cc2nc(SCC(=O)NNC(=S)NCc3ccccc3)n(Cc3ccccc3)c(=O)c2cc1OC`, the Activity in the data set on Mus musculus [1] amounted to 43%; with Mus musculus [2] it was 32%; with Mus musculus [4], 66%; in the data set with Mus musculus [5], 22%; with Mus musculus [6], 78%; with Mus musculus [3], 38%.

`Cc1ccc(S(=O)(=O)NNC(=O)CSc2nc3ccc(Cl)cc3c(=O)n2-c2ccccc2)cc1`: the values for the Activity in the data set with Mus musculus [1], in the data set with Mus musculus [2] and in the data set on Mus musculus [3] were 43%, 40% and 48%, respectively.

In the case of `Cc1ccc(S(=O)(=O)NNC(=O)CSc2nc3ccc(Cl)cc3c(=O)n2Cc2ccccc2)cc1`, the Activity is recorded as 43% in the data set on Mus musculus [1], 47% in the data set on Mus musculus [2] and 74% in the data set on Mus musculus [3].

In the case of `COc1cc2nc(SCC(=O)NNS(=O)(=O)c3ccc(C)cc3)n(Cc3ccccc3)c(=O)c2cc1OC`, the Activity with Mus musculus [1] was determined as 43%; in the data set on Mus musculus [3] it was 0%.

Regarding `CC(=O)NNC(=O)CSc1nc2ccc(Cl)cc2c(=O)n1-c1ccccc1`, the Activity with Mus musculus [1] is 186%; in the data set on Mus musculus [2], 216%; in the data set on Mus musculus [3] it was 48%.

Consider `CCC(=O)NNC(=O)CSc1nc2ccc(Cl)cc2c(=O)n1-c1ccccc1`, for which the Activity in the data set with Mus musculus [7] came out at 636%; in the data set on Mus musculus [9], 1471%; with Mus musculus [10] it was 100%; in the data set on Mus musculus [12] it was 74%. Also, in the data set filed under Mus musculus [8], the “Ratio TD50/ED50” value is given as 8.5. In addition, in [11], the selectivity ratio was determined as 24.6.

For `CCCC(=O)NNC(=O)CSc1nc2ccc(Cl)cc2c(=O)n1-c1ccccc1`, the Activity in the data set on Mus musculus [1] is listed as 43%; in the data set on Mus musculus [2], 75%; in the data set on Mus musculus [3], 82%.

As to `O=C(CSc1nc2ccc(Cl)cc2c(=O)n1-c1ccccc1)NNC(=O)c1ccccc1`, the figures for the Activity in the data set with Mus musculus [1], in the data set with Mus musculus [2] and in the data set with Mus musculus [3] were 114%, 0% and 87%, respectively.

For `O=C(CSc1nc2ccc(Cl)cc2c(=O)n1-c1ccccc1)NNC(=O)Cc1ccccc1`, the Activity with Mus musculus [9] was determined as 43%; in the data set with Mus musculus [12], 0%.

In the case of `O=C(CCc1ccccc1)NNC(=O)CSc1nc2ccc(Cl)cc2c(=O)n1-c1ccccc1`, the Activity with Mus musculus [1] was 43%; in the data set with Mus musculus [3], 0%.

Consider `CC(=O)NNC(=O)CSc1nc2ccc(Cl)cc2c(=O)n1Cc1ccccc1`, for which the Activity in the data set on Mus musculus [2] worked out at 303%; with Mus musculus [4], 60%; in the data set with Mus musculus [13] it was 100%; in the data set with Mus musculus [5] it was 50%; in the data set on Mus musculus [6], 63%. Besides, in the data set listed under Mus musculus [8], the “Ratio TD50/ED50” value was 8.7. Also, in data set [11], the selectivity ratio was 9.7.

On to `CCC(=O)NNC(=O)CSc1nc2ccc(Cl)cc2c(=O)n1Cc1ccccc1`, for which the Activity is 43% in the data set with Mus musculus [1], 0% in the data set with Mus musculus [2] and 74% in the data set with Mus musculus [3].

In the case of `CCCC(=O)NNC(=O)CSc1nc2ccc(Cl)cc2c(=O)n1Cc1ccccc1`, the Activity with Mus musculus [1] is 78%; in the data set on Mus musculus [2] it was 14%; in the data set on Mus musculus [6], 0%; in the data set with Mus musculus [3] it was 61%.

Turning to `CCCCC(=O)NNC(=O)CSc1nc2ccc(Cl)cc2c(=O)n1Cc1ccccc1`, the Activity with Mus musculus [1] and in the data set with Mus musculus [3] was 0% throughout.

Regarding `COc1cc2nc(SCC(=O)NNC(C)=O)n(Cc3ccccc3)c(=O)c2cc1OC`, the Activity in the data set with Mus musculus [1] and in the data set with Mus musculus [3] was 0% each time.

Regarding `CCC(=O)NNC(=O)CSc1nc2cc(OC)c(OC)cc2c(=O)n1Cc1ccccc1`, the Activity in the data set with Mus musculus [1] stood at 471%; with Mus musculus [2], 216%; with Mus musculus [4] it was 79%; in the data set on Mus musculus [13], 100%; in the data set on Mus musculus [5] it was 8%; in the data set on Mus musculus [6] it was 11%. Besides, in the data set on Mus musculus [3], the Activity is recorded as 81%. The “Ratio TD50/ED50” value in the data set filed under Mus musculus [8] was 4.1. Moreover, the selectivity ratio in data set [11] stood at 5.1.

As for `CCCC(=O)NNC(=O)CSc1nc2cc(OC)c(OC)cc2c(=O)n1Cc1ccccc1`, the Activity is 114% with Mus musculus [1], 58% with Mus musculus [2] and 0% with Mus musculus [3].

In the case of `CCCCC(=O)NNC(=O)CSc1nc2cc(OC)c(OC)cc2c(=O)n1Cc1ccccc1`, the Activity with Mus musculus [1] and in the data set on Mus musculus [3] was 0% throughout.

In the case of `O=C(CSc1nc2ccc(Cl)cc2c(=O)n1Cc1ccccc1)NNC(=O)c1ccccc1`, the Activity is 185% in the data set with Mus musculus [1], 75% in the data set with Mus musculus [2] and 23% with Mus musculus [3].

As for `O=C(CSc1nc2ccc(Cl)cc2c(=O)n1Cc1ccccc1)NNC(=O)Cc1ccccc1`, the Activity in the data set on Mus musculus [1] is 43%; in the data set on Mus musculus [2] it was 47%; in the data set with Mus musculus [3] it was 61%.

Take `O=C(CCc1ccccc1)NNC(=O)CSc1nc2ccc(Cl)cc2c(=O)n1Cc1ccccc1`: the Activity is listed as 685% in the data set with Mus musculus [1], 254% in the data set on Mus musculus [2], 100% with Mus musculus [13] and 74% in the data set on Mus musculus [3]. Also, the “Ratio TD50/ED50” value in the data set listed under Mus musculus [8] is 4.6. In addition, the selectivity ratio in [11] is 9.8.

As for `COc1cc2nc(SCC(=O)NNC(=O)c3ccccc3)n(Cc3ccccc3)c(=O)c2cc1OC`, the Activity in the data set with Mus musculus [1] and in the data set with Mus musculus [3] was 0% each time.

Take `COc1cc2nc(SCC(=O)NNC(=O)Cc3ccccc3)n(Cc3ccccc3)c(=O)c2cc1OC`: the Activity with Mus musculus [1] was 186%; in the data set on Mus musculus [2], 58%; with Mus musculus [4], 97%; in the data set on Mus musculus [5], 17%; with Mus musculus [6], 18%; with Mus musculus [3] it was 68%.

`COc1cc2nc(SCC(=O)NNC(=O)CCc3ccccc3)n(Cc3ccccc3)c(=O)c2cc1OC`: the Activity with Mus musculus [1] is reported as 114%; in the data set on Mus musculus [2], 0%; in the data set with Mus musculus [3] it was 81%.

Take `COc1cc2nc(SC)n(Cc3ccccc3)c(=O)c2cc1OC`: the Activity entry with Mus musculus [14] is on record as “Toxic”.

On to `CCCC(CCC)C(=O)[O-].[Na+]` [VALPROATE SODIUM], for which the Activity with Mus musculus [10] is recorded as 100%.
